According to the OligoGym collection:
HELM strings list units from the 5' end as sugar, base in round brackets, then linkage (d deoxyribose, r ribose, m 2'-O-methyl, p phosphodiester). Strings are as the collection lists them; they lack the last nucleoside at the 3' end of the tested compound. [moe] = 2'-O-(2-methoxyethyl) (MOE); [sp] = phosphorothioate linkage; [m5C] = 5-methylcytosine

Each substance was assayed against ATXN2 (assay: mouse, dose not given). Details: ASO.

Substance	3 h FOB score [score 0-7]
RNA1{[moe](A)[sp].[moe](T)p.[moe](T)p.[moe]([m5C])p.[moe](T)p.d(G)[sp].d(T)[sp].d(A)[sp].d([m5C])[sp].d(T)[sp].d(T)[sp].d(T)[sp].d(T)[sp].d([m5C])[sp].d(T)[sp].[moe]([m5C])p.[moe](A)p.[moe](T)[sp].[moe](G)}$$$$ (last 3' nucleoside missing)	1
RNA1{[moe](A)[sp].[moe](T)p.[moe]([m5C])p.[moe](A)p.[moe](A)p.d([m5C])[sp].d(T)[sp].d([m5C])[sp].d([m5C])[sp].d(A)[sp].d(A)[sp].d(A)[sp].d(G)[sp].d(G)[sp].d(T)[sp].[moe](A)p.[moe](G)p.[moe]([m5C])[sp].[moe](A)}$$$$ (last 3' nucleoside missing)	6
RNA1{[moe](A)[sp].[moe](T)p.[moe]([m5C])p.[moe](A)p.[moe](G)p.d(T)[sp].d(A)[sp].d(T)[sp].d(T)[sp].d(T)[sp].d(A)[sp].d([m5C])[sp].d(T)[sp].d(A)[sp].d([m5C])[sp].[moe](T)p.[moe](T)p.[moe]([m5C])[sp].[moe](T)}$$$$ (last 3' nucleoside missing)	2.75
RNA1{[moe](A)[sp].[moe](T)p.[moe]([m5C])p.[moe](A)p.[moe](G)p.d(T)[sp].d(T)[sp].d(T)[sp].d(G)[sp].d(T)[sp].d(A)[sp].d(T)[sp].d(G)[sp].d(A)[sp].d([m5C])[sp].[moe]([m5C])p.[moe](A)p.[moe](T)[sp].[moe](A)}$$$$ (last 3' nucleoside missing)	3
RNA1{[moe](A)[sp].[moe](T)p.[moe]([m5C])p.[moe](A)p.[moe](T)[sp].d([m5C])[sp].d(A)[sp].d(T)[sp].d(T)[sp].d(T)[sp].d(T)[sp].d([m5C])[sp].d([m5C])[sp].[moe](A)p.[moe](G)p.[moe](G)[sp].[moe](G)}$$$$ (last 3' nucleoside missing)	4.5
RNA1{[moe](A)[sp].[moe](T)p.[moe]([m5C])p.[moe](T)p.[moe](A)p.d(T)[sp].d(G)[sp].d(A)[sp].d(T)[sp].d(T)[sp].d(T)[sp].d(T)[sp].d([m5C])[sp].d(A)[sp].d(T)[sp].[moe]([m5C])p.[moe](A)p.[moe](G)[sp].[moe](G)}$$$$ (last 3' nucleoside missing)	0
RNA1{[moe](A)[sp].[moe]([m5C])p.[moe](A)p.[moe](G)p.[moe](T)p.d(T)[sp].d(T)[sp].d([m5C])[sp].d(A)[sp].d([m5C])[sp].d(T)[sp].d(A)[sp].d(G)[sp].d(G)[sp].d(T)[sp].[moe](T)p.[moe]([m5C])p.[moe](T)[sp].[moe]([m5C])}$$$$ (last 3' nucleoside missing)	3.25
RNA1{[moe](A)[sp].[moe]([m5C])p.[moe](A)p.[moe](T)p.[moe](A)p.d(G)[sp].d(G)[sp].d(T)[sp].d(T)[sp].d(A)[sp].d(G)[sp].d(A)[sp].d(A)[sp].d(T)[sp].d(T)[sp].[moe](T)p.[moe](T)p.[moe]([m5C])[sp].[moe]([m5C])}$$$$ (last 3' nucleoside missing)	1
RNA1{[moe](A)[sp].[moe]([m5C])p.[moe](A)p.[moe]([m5C])[sp].[moe](A)[sp].d(G)[sp].d(T)[sp].d(T)[sp].d(T)[sp].d([m5C])[sp].d(A)[sp].d([m5C])[sp].d(T)[sp].d(A)[sp].d(G)[sp].[moe](G)p.[moe](T)p.[moe](T)[sp].[moe]([m5C])}$$$$ (last 3' nucleoside missing)	2
RNA1{[moe](A)[sp].[moe]([m5C])p.[moe](A)p.[moe]([m5C])p.[moe](A)[sp].d(G)[sp].d(T)[sp].d(T)[sp].d(T)[sp].d([m5C])[sp].d(A)[sp].d([m5C])[sp].d(T)[sp].d(A)[sp].d(G)[sp].[moe](G)p.[moe](T)p.[moe](T)[sp].[moe]([m5C])}$$$$ (last 3' nucleoside missing)	4.75
RNA1{[moe](A)[sp].[moe]([m5C])p.[moe](A)p.[moe]([m5C])p.[moe](A)p.[moe](G)p.d(T)[sp].d(T)[sp].d(T)[sp].d([m5C])[sp].d(A)[sp].d([m5C])[sp].d(T)[sp].d(A)[sp].d(G)[sp].d(G)[sp].[moe](T)p.[moe](T)[sp].[moe]([m5C])}$$$$ (last 3' nucleoside missing)	1
RNA1{[moe](A)[sp].[moe]([m5C])p.[moe](A)p.[moe]([m5C])p.[moe](A)p.d(G)[sp].d(T)[sp].d(T)[sp].d(T)[sp].d([m5C])[sp].d(A)[sp].d([m5C])[sp].d(T)[sp].d(A)[sp].d(G)[sp].[moe](G)p.[moe](T)p.[moe](T)[sp].[moe]([m5C])}$$$$ (last 3' nucleoside missing)	0
RNA1{[moe](A)[sp].[moe]([m5C])p.[moe](A)p.[moe]([m5C])p.d(A)[sp].d(G)[sp].d(T)[sp].d(T)[sp].d(T)[sp].d([m5C])[sp].d(A)[sp].d([m5C])[sp].d(T)[sp].d(A)[sp].[moe](G)p.[moe](G)p.[moe](T)p.[moe](T)[sp].[moe]([m5C])}$$$$ (last 3' nucleoside missing)	0
RNA1{[moe](A)[sp].[moe]([m5C])p.[moe](G)p.[moe]([m5C])p.[moe](G)p.d(G)[sp].d(T)[sp].d(G)[sp].d(A)[sp].d(A)[sp].d(T)[sp].d(T)[sp].d([m5C])[sp].d(T)[sp].d(G)[sp].[moe](T)p.[moe]([m5C])p.[moe](T)[sp].[moe]([m5C])}$$$$ (last 3' nucleoside missing)	1
RNA1{[moe](A)[sp].[moe]([m5C])p.[moe](G)p.[moe]([m5C])p.[moe](T)p.d(G)[sp].d(T)[sp].d(A)[sp].d(T)[sp].d(T)[sp].d(T)[sp].d(T)[sp].d(T)[sp].d(A)[sp].d([m5C])[sp].[moe](T)p.[moe]([m5C])p.[moe](A)[sp].[moe]([m5C])}$$$$ (last 3' nucleoside missing)	0
RNA1{[moe](A)[sp].[moe]([m5C])p.[moe](T)p.[moe](G)p.[moe](A)p.d(G)[sp].d(T)[sp].d(T)[sp].d([m5C])[sp].d(T)[sp].d(A)[sp].d(T)[sp].d(A)[sp].d(G)[sp].d(G)[sp].[moe](T)p.[moe](G)p.[moe]([m5C])[sp].[moe](T)}$$$$ (last 3' nucleoside missing)	3
RNA1{[moe](A)[sp].[moe]([m5C])p.[moe](T)p.[moe](G)p.[moe](G)p.d(A)[sp].d(T)[sp].d(T)[sp].d([m5C])[sp].d(T)[sp].d(G)[sp].d(T)[sp].d(A)[sp].d([m5C])[sp].d(T)[sp].[moe](T)p.[moe](T)p.[moe](T)[sp].[moe]([m5C])}$$$$ (last 3' nucleoside missing)	2
RNA1{[moe](A)[sp].[moe]([m5C])p.[moe](T)p.[moe](G)p.[moe](T)p.d(T)[sp].d(T)[sp].d([m5C])[sp].d(G)[sp].d(A)[sp].d([m5C])[sp].d([m5C])[sp].d(T)[sp].d([m5C])[sp].d(T)[sp].[moe](G)p.[moe](A)p.[moe](A)[sp].[moe](A)}$$$$ (last 3' nucleoside missing)	4
RNA1{[moe](A)[sp].[moe]([m5C])p.[moe](T)p.[moe](T)p.[moe](G)p.d(T)[sp].d(A)[sp].d([m5C])[sp].d(T)[sp].d(T)[sp].d([m5C])[sp].d(A)[sp].d([m5C])[sp].d(A)[sp].d(T)[sp].[moe](T)p.[moe](T)p.[moe](G)[sp].[moe](G)}$$$$ (last 3' nucleoside missing)	1
